# Measured values published in ChEMBL document CHEMBL5584347, “Development of Nitric Oxide Releasing Oxoisoaporphines with Antidepressant Activities by Simultaneously Regulating MAO-A and SERT” (J Med Chem, 2024).
# Activity calls are given as the source filed them. No cut-off for these calls is given here.
# Assays:
# [1] = Toxicity in zebrafish embryo assessed as morphological changes at 0.1 to 10 uM administered with compound starting from 6 hours fertilization and measured at 48 to 120 hours post fertilization; set-up: species or system Danio rerio; details: in vivo, dose lower 0.1 µM, time lower 42 hrs, dose upper 10 µM, time upper 114 hrs
# [2] = Toxicity in C57 mouse assessed as necrosis in kidney at 5 to 10 mg/kg administered continuously for 2 weeks by H and E staining based analysis; format: organism-based; details: in vivo, 336 h, dose 5-10 mg/kg
# [3] = Toxicity in C57 mouse assessed as effect on lung size at 5 to 10 mg/kg administered continuously for 2 weeks by H and E staining based analysis; format: organism-based; details: in vivo, 336 h, dose 5-10 mg/kg
# [4] = Toxicity in C57 mouse assessed as necrosis in heart at 5 to 10 mg/kg administered continuously for 2 weeks by H and E staining based analysis; format: organism-based; details: in vivo, 336 h, dose 5-10 mg/kg
# Mus musculus [5] = experiment: Antidepressant activity in chronic unpredictable mild stress induced depressive C57 mouse model assessed as reduction in resting time at 5 to 10 mg/kg administered continuously for 2 weeks post 5 weeks of chronic unpredictable mild stress by tail suspension test; format: functional, organism-based; details: dose 5-10 mg/kg
# Mus musculus [6] = experiment: Antidepressant activity in reserpine induced depressive mouse model assessed as 5-HT level in brain at 5 mg/kg preadministered with reserpine for 3 days followed by compound addition from day 4 to 10 by LC-MS analysis (reference value: 186.46 ng/ml); format: functional; details: time 7 day
# [7] = Toxicity in C57 mouse assessed as effect on heart size at 5 to 10 mg/kg administered continuously for 2 weeks by H and E staining based analysis; format: organism-based; details: in vivo, 336 h, dose 5-10 mg/kg
# Danio rerio [8] = experiment: Antidepressant activity in reserpine-induced depressive zebrafish model assessed as increase in total distance traveled at 0.5 to 1 uM preadministered with reserpine for 40 mins followed by compound administration and measured after 7 days by open field test; format: functional, organism-based; details: dose 0.5-1 µM, time 7.0 day
# [9] = Toxicity in C57 mouse assessed as effect on kidney structure at 5 to 10 mg/kg administered continuously for 2 weeks by H and E staining based analysis; format: organism-based; details: in vivo, 336 h, dose 5-10 mg/kg
# [10] = Toxicity in C57 mouse assessed as effect on spleen structure at 5 to 10 mg/kg administered continuously for 2 weeks by H and E staining based analysis; format: organism-based; details: in vivo, 336 h, dose 5-10 mg/kg
# Mus musculus [11] = experiment: Antidepressant activity in chronic unpredictable mild stress induced depressive C57 mouse model assessed as increase in nitric oxide content in brain at 5 to 10 mg/kg administered continuously for 2 weeks post 5 weeks of chronic unpredictable mild stress by absorbance based analysis; format: functional, organism-based; details: dose 5-10 mg/kg
# [12] = Toxicity in C57 mouse assessed as effect on liver pathology at 5 to 10 mg/kg administered continuously for 2 weeks by H and E staining based analysis; format: organism-based; details: in vivo, 336 h, dose 5-10 mg/kg
# [13] = Toxicity in C57 mouse assessed as effect on heart structure at 5 to 10 mg/kg administered continuously for 2 weeks by H and E staining based analysis; format: organism-based; details: in vivo, 336 h, dose 5-10 mg/kg
# Mus musculus [14] = experiment: Antidepressant activity in chronic unpredictable mild stress induced depressive C57 mouse model assessed as increase in total distance traveled at 5 to 10 mg/kg administered continuously for 2 weeks post 5 weeks of chronic unpredictable mild stress by open field test; format: functional, organism-based; details: dose 5-10 mg/kg
# Danio rerio [15] = experiment: Antidepressant activity in reserpine-induced depressive zebrafish model assessed as increase in speed of movement at 0.5 to 1 uM preadministered with reserpine for 40 mins followed by compound administration and measured after 7 days by open field test; format: functional, organism-based; details: dose 0.5-1 µM, time 7.0 day
# Mus musculus [16] = experiment: Antidepressant activity in chronic unpredictable mild stress induced depressive C57 mouse model assessed as reduction in MAO-A activity in brain at 5 to 10 mg/kg administered continuously for 2 weeks post 5 weeks of chronic unpredictable mild stress by colorimetric analysis; format: functional, organism-based; details: dose 5-10 mg/kg
# [17] = Toxicity in C57 mouse assessed as effect on liver morphology at 5 to 10 mg/kg administered continuously for 2 weeks by H and E staining based analysis; format: organism-based; details: in vivo, 336 h, dose 5-10 mg/kg
# [18] = Cytotoxicity against human L02 cells incubated for 24 hrs by MTT assay; format: toxicity, cell-based
# [19] = Toxicity in C57 mouse assessed as effect on heart pathology at 5 to 10 mg/kg administered continuously for 2 weeks by H and E staining based analysis; format: organism-based; details: in vivo, 336 h, dose 5-10 mg/kg
# Mus musculus [20] = experiment: Antidepressant activity in chronic unpredictable mild stress induced depressive C57 mouse model assessed as increase in movement at 5 to 10 mg/kg administered continuously for 2 weeks post 5 weeks of chronic unpredictable mild stress by open field test; format: functional, organism-based; details: dose 5-10 mg/kg
# Mus musculus [21] = experiment: Antidepressant activity in chronic unpredictable mild stress induced depressive C57 mouse model assessed as reduction in neuronal cell damage in hippocampus at 5 to 10 mg/kg administered continuously for 2 weeks post 5 weeks of chronic unpredictable mild stress by H and E staining based analysis; format: functional, organism-based; details: dose 5-10 mg/kg
# Danio rerio [22] = experiment: Antidepressant activity in reserpine-induced depressive zebrafish model assessed as reduction in immobility time at 0.5 to 1 uM preadministered with reserpine for 40 mins followed by compound administration and measured after 7 days by open field test; format: functional, organism-based; details: dose 0.5-1 µM, time 7.0 day
# Mus musculus [23] = experiment: Antidepressant activity in chronic unpredictable mild stress induced depressive C57 mouse model assessed as reduction in resting time at 5 to 10 mg/kg administered continuously for 2 weeks post 5 weeks of chronic unpredictable mild stress by forced swimming test; format: functional, organism-based; details: dose 5-10 mg/kg
# PC-12 [24] = experiment: Neuroprotective activity against corticosterone-induced cell injury in rat PC-12 cells assessed as increase in cell viability at 0.1 to 1 uM incubated for 24 hrs by CCK8 assay; format: functional, cell-based; details: dose 0.1-1 µM
# Mus musculus [25] = experiment: Antidepressant activity in reserpine induced depressive mouse model assessed as 5-HT level in brain at 10 mg/kg preadministered with reserpine for 3 days followed by compound addition from day 4 to 10 by LC-MS analysis (reference value: 186.46 ng/ml); format: functional; details: time 7 day
# [26] = Toxicity in C57 mouse assessed as effect on heart morphology at 5 to 10 mg/kg administered continuously for 2 weeks by H and E staining based analysis; format: organism-based; details: in vivo, 336 h, dose 5-10 mg/kg
# PC-12 [27] = experiment: Neuroprotective activity against corticosterone-induced cell injury in rat PC-12 cells assessed as increase in nitric oxide content at 0.2 uM by absorbance based assay; format: functional
# Mus musculus [28] = experiment: Antidepressant activity in chronic unpredictable mild stress induced depressive C57 mouse model assessed as appearance of well arranged neuronal cells in hippocampus at 5 to 10 mg/kg administered continuously for 2 weeks post 5 weeks of chronic unpredictable mild stress by H and E staining based analysis; format: functional, organism-based; details: dose 5-10 mg/kg
# [29] = Toxicity in C57 mouse assessed as effect on kidney size at 5 to 10 mg/kg administered continuously for 2 weeks by H and E staining based analysis; format: organism-based; details: in vivo, 336 h, dose 5-10 mg/kg
# [30] = Toxicity in C57 mouse assessed as effect on spleen morphology at 5 to 10 mg/kg administered continuously for 2 weeks by H and E staining based analysis; format: organism-based; details: in vivo, 336 h, dose 5-10 mg/kg
# [31] = Cytotoxicity against rat PC-12 cells incubated for 24 hrs by MTT assay; format: toxicity, cell-based
# [32] = Toxicity in C57 mouse assessed as necrosis in lungs at 5 to 10 mg/kg administered continuously for 2 weeks by H and E staining based analysis; format: organism-based; details: in vivo, 336 h, dose 5-10 mg/kg
# [33] = Toxicity in C57 mouse assessed as effect on liver structure at 5 to 10 mg/kg administered continuously for 2 weeks by H and E staining based analysis; format: organism-based; details: in vivo, 336 h, dose 5-10 mg/kg
# Danio rerio [34] = experiment: Antidepressant activity in reserpine-induced depressive zebrafish model assessed as increase in total distance traveled at 0.5 to 1 uM preadministered with reserpine for 40 mins followed by compound administration and measured after 7 days by novel tank test; format: functional, organism-based; details: dose 0.5-1 µM, time 7.0 day
smiles,measurement,setting,value
O=C1c2ccccc2-c2nccc3cc(OCCCO[N+](=O)[O-])cc1c23,Activity,[1],Non-Toxic
same,Activity,[2],Non-Toxic
same,Activity,[3],Non-Toxic
same,Activity,[4],Non-Toxic
same,Activity,Mus musculus [5],Active
same,Activity,Mus musculus [6],508.39 ng/mL
same,Activity,[7],Non-Toxic
same,Activity,Danio rerio [8],Active
same,Activity,[9],Non-Toxic
same,Activity,[10],Non-Toxic
same,Activity,Mus musculus [11],Active
same,Activity,[12],Non-Toxic
same,Activity,[13],Non-Toxic
same,Activity,Mus musculus [14],Active
same,Activity,Danio rerio [15],Active
same,Activity,Mus musculus [16],Active
same,Activity,[17],Non-Toxic
same,IC50 at 24 h,[18],> 100 µM
same,Activity,[19],Non-Toxic
same,Activity,Mus musculus [20],Active
same,Activity,Mus musculus [21],Active
same,Activity,Danio rerio [22],Active
same,Activity,Mus musculus [23],Active
same,Activity,PC-12 [24],Active
same,Activity,Mus musculus [25],643.87 ng/mL
same,Activity,[26],Non-Toxic
same,Activity,PC-12 [27],Active
same,Activity,Mus musculus [28],Active
same,Activity,[29],Non-Toxic
same,Activity,[30],Non-Toxic
same,IC50 at 24 h,[31],> 10 µM
same,Activity,[32],Non-Toxic
same,Activity,[33],Non-Toxic
same,Activity,Danio rerio [34],Active
